Assay results as given in patent publication US8221975B2, “Method for detection of microorganism” (Morinaga Milk Industry Co., Ltd., priority 2007, dated 2012).
“And” between values parts separate entries of the source, which are not always exact repeats. Identical values can stand only once.

Key:
Type in all cases: cell-based
[1] = test system: Listeria monocytogenes JCM 2873; assay: hlyA-PCR of EMA-treated Listeria (live and injured cells), band intensity of final amplified product on agarose gel; settings: for bands of hlyA gene amplified products (electrophoresis, FIG. 1): multi-step treatment (EMA 100 μg/ml-incubation-EMA 25 or 10 μg/ml); for bands estimated as hlyA gene amplified products (electrophoresis, FIG. 1): single-step treatment, live cells and injured cells
[2] = test system: Enterobacter sakazakii ATCC 6538P; assay: ompA-PCR (469 bp) of EMA-treated Enterobacter sakazakii, band intensity of final amplified product; settings: multi-step treatment (EMA 10 μg/ml-incubation-EMA 10 μg/ml)
Procedure: (§1) A Gram-negative bacterium, Enterobacter sakazakii (Enterobacter sakazakii ATCC […]; hereinafter, abbreviated as “sakazakii” in some cases), was cultured in brain-heart infusion (BHI) broth at 37° C., and 5 ml of the culture medium in the logarithmic growth phase was centrifuged at 8,000×g for 15 minutes at 4° C., followed by removal of the supernatant. 5 ml of physiological saline was added to the bacterial cells, and the whole was vigorously stirred and diluted 10-fold. Thus, a live cell suspension was prepared. […] The live cell suspension (1 ml) was placed in a 1.5-ml microtube, and the microtube was immersed in boiling water for 2 minutes and immediately cooled with ice water, to thereby prepare a injured cell suspension. The cells in the suspension probably include small numbers of live cells and dead cells but include mainly injured cells. Therefore, the cells are simply referred to as “injured cells”. Note that the method of the present invention is originally intended to detect live cells, and microorganism cells distinguished from live cells may be injured cells or dead cells. Ethidium monoazide (EMA) was added to the live cell suspension and injured cell suspension of sakazakii prepared above at a final concentration of 0, 10, 25, or 100 μg/ml, and the suspensions were allowed to stand under shading at 4° C. for 10 minutes. The suspensions were placed on ice and irradiated for 5 minutes with a 500-W visible light (FLOOD PRF: 100 […] ELECTRIC CO., LTD., wavelength: 500 to 700 nm) at a distance of 20 cm from the suspensions. Then, the suspensions were centrifuged at 15,000×g for 10 minutes at 4° C., and the supernatants were removed. An equal volume of physiological saline was added thereto, and the suspensions were stirred and centrifuged while cooling at 15,000×g for 10 minutes at 4° C., followed by removal of the supernatants. An equal volume of brain-heart infusion (BHI) broth was added thereto, and the suspensions were incubated at 37° C. for 2 hours. In the first EMA treatment, EMA was not added again to the live cell and injured cell suspensions having an EMA concentration of 0, while EMA was added again at a final concentration of 10 μg/ml to the live cell and injured cell suspensions having an EMA concentration of 10, 25, or 100 μg/ml. The suspensions were allowed to stand under shading at 4° C. for 10 minutes, placed on ice, and irradiated for 5 minutes with a 500-W visible light at a distance of 20 cm from the suspensions. Ethidium monoazide (EMA) was added to the live cell and injured cell suspensions of sakazakii prepared in the section “1.” at a final concentration of 0, 10, 25 or 100 μg/ml, and the suspensions were allowed to stand under shading at 4° C. for 10 minutes, placed on ice, and irradiated for 5 minutes with a 500-W visible light (FLOOD PRF: […] ELECTRIC CO., LTD., wavelength: 500 to 700 nm) at a distance of 20 cm from the suspensions. Microtubes including one of the live cell and injured cell suspensions of sakazakii treated in the sections 2-1) and 2-2) above were centrifuged at 15,000×g for 10 minutes at 4° C. The supernatants were removed, and 1 ml of physiological saline was added thereto. The resultant suspensions were stirred vigorously and centrifuged while cooling in the same way as above (washing treatment). One more washing treatment was performed in the same way, and the same amount of sterile water as the initial amount was added to the pellets, followed by vigorous stirring. PCR Master Mix (total volume: 25.25 μl) was prepared using Direct Buffer Mix (G&g SCIENCE CO., LTD., Yokohama, Kanagawa) capable of sequentially and automatically performing elution of chromosomal DNA from a bacterium and PCR reactions. […]

[3] = test system: Enterobacter sakazakii; assay: as above
Procedure: as §1

[4] = test system: Enterobacter sakazakii ATCC 6538P; assay: ompA real-time PCR (469 bp) of EMA-treated Enterobacter sakazakii, Ct value
[5] = test system: Enterobacter sakazakii ATCC 6538P; assay: MMS-PCR of EMA-treated Enterobacter sakazakii, band intensity of final amplified product; settings: for bands of MMS gene amplified products (electrophoresis, FIG. 3): multi-step treatment (EMA 10 μg/ml-incubation-EMA 10 μg/ml)
Procedure: as §1

[6] = test system: Salmonella enteritidis IIP 604; assay: invA real-time PCR (378 bp) of EMA-treated Salmonella, Ct value
[7] = single-step EMA 10 μg/ml, Injured cell
[8] = single-step EMA 10 μg/ml, Live cell
[9] = single-step EMA 25 μg/ml, Injured cell
[10] = single-step EMA 25 μg/ml, Live cell
[11] = multi-step: EMA 10 μg/ml + Incubation (37° C., 2 hr) + EMA 10 μg/ml, Injured cell
[12] = multi-step: EMA 10 μg/ml + Incubation (37° C., 2 hr) + EMA 10 μg/ml, Live cell
[13] = single-step EMA 100 μg/ml, Injured cell
[14] = single-step EMA 100 μg/ml, Live cell
[15] = two-step EMA 10/10 μg/ml, Injured cell
[16] = two-step EMA 10/10 μg/ml, Live cell
[17] = two-step EMA 25/10 μg/ml, Injured cell
[18] = two-step EMA 25/10 μg/ml, Live cell
[19] = two-step EMA 100/10 μg/ml, Injured cell
[20] = two-step EMA 100/10 μg/ml, Live cell

CC[n+]1c(-c2ccccc2)c2cc(N=[N+]=[N-])ccc2c2ccc(N)cc21 [EMA, ethidium monoazide]
bands of hlyA gene amplified products (electrophoresis, FIG. 1) ([1]; injured cells): few or no bands were detected
bands of hlyA gene amplified products (electrophoresis, FIG. 1) ([1]; live cells): bands were clearly detected
Band Intensity ([1]; multi-step: EMA 100 μg/ml + Incubation (30° C., 2 hr) + EMA 10 μg/ml, Injured cell): 0.094
Band Intensity ([1]; multi-step: EMA 100 μg/ml + Incubation (30° C., 2 hr) + EMA 10 μg/ml, Live cell): 1.420
Band Intensity ([1]; multi-step: EMA 100 μg/ml + Incubation (30° C., 2 hr) + EMA 25 μg/ml, Injured cell): 0.024
Band Intensity ([1]; multi-step: EMA 100 μg/ml + Incubation (30° C., 2 hr) + EMA 25 μg/ml, Live cell): 1.135
Band Intensity [1, 7]: 1.539
Band Intensity [1, 8]: 1.141
Band Intensity [1, 9]: 0.418
Band Intensity [1, 10]: 0.479
bands estimated as hlyA gene amplified products (electrophoresis, FIG. 1) ([1]; EMA 10 μg/ml): detected in both the live cells and injured cells
bands estimated as hlyA gene amplified products (electrophoresis, FIG. 1) ([1]; EMA 25 μg/ml): almost disappeared in both the live cells and injured cells
bands of ompA gene amplified products (electrophoresis, FIG. 2) ([2]; injured cells): no band was detected
bands of ompA gene amplified products (electrophoresis, FIG. 2) ([2]; live cells): bands were clearly detected
Band Intensity [3, 11]: 0.000
Band Intensity [3, 12]: 1.546
Band Intensity [3, 7]: 0.502
Band Intensity [3, 8]: 1.690
Ct value (mean ± SD, N = 2) [4, 7]: 36.3, ND^c,d
number of times of positive reaction in two PCR assays (i/2) [4, 7]: (1/2)
Ct value (mean ± SD, N = 2) [4, 8]: 18.8 ± 0.3
number of times of positive reaction in two PCR assays (i/2) [4, 8]: (2/2)
Ct value (mean ± SD, N = 2) [4, 9]: ND, ND
number of times of positive reaction in two PCR assays (i/2) [4, 9]: (0/2)
Ct value (mean ± SD, N = 2) [4, 10]: 20.9±0.6
number of times of positive reaction in two PCR assays (i/2) [4, 10]: (2/2)
Ct value (mean ± SD, N = 2) [4, 13]: 35.0, ND
number of times of positive reaction in two PCR assays (i/2) [4, 13]: (1/2)
Ct value (mean ± SD, N = 2) [4, 14]: 23.9 ± 0.9
number of times of positive reaction in two PCR assays (i/2) [4, 14]: (2/2)
Ct value (mean ± SD, N = 2) [4, 15]: ND, ND
number of times of positive reaction in two PCR assays (i/2) [4, 15]: (0/2)
Ct value (mean ± SD, N = 2) [4, 16]: 15.9±0.4
number of times of positive reaction in two PCR assays (i/2) [4, 16]: (2/2)
Ct value (mean ± SD, N = 2) [4, 17]: ND, ND
number of times of positive reaction in two PCR assays (i/2) [4, 17]: (0/2)
Ct value (mean ± SD, N = 2) [4, 18]: 20.1 ± 1.6
number of times of positive reaction in two PCR assays (i/2) [4, 18]: (2/2)
Ct value (mean ± SD, N = 2) [4, 19]: 36.0, ND
number of times of positive reaction in two PCR assays (i/2) [4, 19]: (1/2)
Ct value (mean ± SD, N = 2) [4, 20]: 23.6 ± 0.4
number of times of positive reaction in two PCR assays (i/2) [4, 20]: (2/2)
bands of MMS gene amplified products (electrophoresis, FIG. 3) ([5]; injured cells): no band was detected
bands of MMS gene amplified products (electrophoresis, FIG. 3) ([5]; live cells): bands were clearly detected
Band Intensity [5, 11]: 0.000
Band Intensity [5, 12]: 0.997
Band Intensity [5, 7]: 0.855
Band Intensity [5, 8]: 0.845
Ct value (mean ± SD, N = 2) [6, 7]: 31.6 ± 4.7
number of times of positive reaction in two PCR assays (i/2) [6, 7]: (2/2)
Ct value (mean ± SD, N = 2) [6, 8]: 16.2 ± 0.4
number of times of positive reaction in two PCR assays (i/2) [6, 8]: (2/2)
Ct value (mean ± SD, N = 2) [6, 9]: ND, ND^c,d
number of times of positive reaction in two PCR assays (i/2) [6, 9]: (0/2)
Ct value (mean ± SD, N = 2) [6, 10]: 18.23±0.3 and 18.2 ± 0.3
number of times of positive reaction in two PCR assays (i/2) [6, 10]: (2/2)
Ct value (mean ± SD, N = 2) [6, 13]: ND, ND
number of times of positive reaction in two PCR assays (i/2) [6, 13]: (0/2)
Ct value (mean ± SD, N = 2) [6, 14]: 27.7±3.8 and 27.7 ± 3.6
number of times of positive reaction in two PCR assays (i/2) [6, 14]: (2/2)
Ct value (mean ± SD, N = 2) [6, 15]: ND, ND
number of times of positive reaction in two PCR assays (i/2) [6, 15]: (0/2)
Ct value (mean ± SD, N = 2) [6, 16]: 16.0±3.5
number of times of positive reaction in two PCR assays (i/2) [6, 16]: (2/2)
Ct value (mean ± SD, N = 2) [6, 17]: ND, ND
number of times of positive reaction in two PCR assays (i/2) [6, 17]: (0/2)
Ct value (mean ± SD, N = 2) [6, 18]: 18.9 ± 2.2
number of times of positive reaction in two PCR assays (i/2) [6, 18]: (2/2)
Ct value (mean ± SD, N = 2) [6, 19]: ND, ND
number of times of positive reaction in two PCR assays (i/2) [6, 19]: (0/2)
Ct value (mean ± SD, N = 2) [6, 20]: 27.9 ± 3.0
number of times of positive reaction in two PCR assays (i/2) [6, 20]: (2/2)
